# Results: patent publication US20160103142A1, “Blood-Platelet Test Method and Blood-Platelet Test Device” (FUJIMORI KOGYO CO., LTD., priority 2008, published 2016)
# B1: ReoPro: ReoPro (Eli lilly), an antibody against the receptor GPIIb/IIIa on the platelet membrane (antibody, chains of the INN, looked up, V domains shown)
# VH: EVQLQQSGTVLARPGASVKMSCEASGYTFTNYWMHWVKQRPGQGLEWIGAIYPGNSDTSYIQKFKGKAKLTAVTSTTSVYMELSSLTNEDSAVYYCTLYDGYYVFAYWGQGTLVTVSA
# VL: EIVLTQSPVTLSVTPGDSVSLSCRASRDISNNLHWFQQTSHESPRLLIKYASQSMSGIPSRFSGSGSGTDFTLSINSVETEDFGMYFCQQTNSWPYTFGGGTKLEIK
# modifications: Fab
# notes: ReoPro (Eli lilly), an antibody against the receptor GPIIb/IIIa on the platelet membrane
# Tests used:
# platelets [1] = assay: Camera images of platelet adherence in collagen-coated microchip 1 (Example 7); assay type: cell-based; details: ADP 0.025, 0.05, 0.1 μM in citric acid-treated blood, 8 μl/min, image after 1 minute
# Experimental: (§1) In the first substrate 100, the length, depth and width of the channel (capillary) 101 were 20 mm, 50 μm and 2 mm, respectively.
# A pump 109 was connected to the reservoir 107 via a tube, and the pressure exerted on the pump was measured with a pressure sensor which is not shown. In the reservoir 107, a cylindrical stirring bar 108 having a diameter of 2 mm and a length of 5 mm, which was prepared by coating an iron cylinder with PMEA, was contained. The stirring bar 108 was set such that it can be rotated at 60 to 180 rpm by the magnetic force of a stirrer 113 placed under the heater 115 which was heated to 37° C. An outlet duct 112 was connected to the outlet such that the blood after the analysis can be discharged. A camera 111 to which an image analyzer 114 was connected was placed above the channel dividing section 102 of the microchip 1, thereby allowing observation of the state of platelet activation in the channel dividing section 102.
# An experiment was carried out using the microchip 1 and the system A in Example 1 for diagnosis by images. The pump 109 was filled with mineral oil, and the reservoir 107 was filled with blood anticoagulated with citric acid. The mineral oil was sent to the reservoir 107 using the pump 109 at a flow rate of 8 μl/min. to allow the blood to flow into the microchip 1. […]
# platelets [2] = assay: Pressure increase in glass-surface microchip 2, citric acid-anticoagulated blood with ADP (Examples 8 to 10); assay type: ex vivo
# From the text: The first substrate 200 shown in FIG. 3A and the second substrate 210 shown in FIG. 3B were laminated with and bonded to each other, to provide the microchip 2 shown in FIG. 3C. In terms of the substrate 200, a substrate made of PDMS (Fluidware) was used, and the depth of all the channels was 120 μm; the channel width was 1 mm; the length of the comb was 1 mm; the width of the comb was 50 μm; and the groove width was 50 μm. In terms of the substrate 210, a slide glass was used, and penetrating holes corresponding to the inlet and the outlet were provided as in the substrate 110, but, unlike the substrate 110, collagen was not applied since the glass plays a role as a platelet-adhesive surface. […] The mineral oil was injected from the pump 209 into the microchip 2 at a flow rate of 20 μl/min., and the inflow pressure of the mineral oil was measured by a pressure sensor which is not shown. Pressure changes were measured by carrying out an experiment which was the same as that in Example 8 except that ADP (manufactured by Wako Pure Chemical Industries, Ltd.) was further added to the blood anticoagulated with citric acid in the reservoir 207 to a final concentration of […]. Pressure changes were measured by carrying out an experiment which was the same as that in Example 9 except that blood collected 3 hours after dosing with 75 mg clopidogrel (Sanofi-aventis) was used.
# platelets [3] = assay: Pressure increase in collagen-coated microchip 1, citric acid-treated blood with arachidonic acid or collagen (Examples 16 to 18); assay type: ex vivo; details: subject G
# Experimental: as §1
# The experiments a to f in Example 16 were carried out for the subject G 6 hours after dosing with 100 mg of aspirin.
# Using blood of the subject G collected 6 hours after dosing with 100 mg of aspirin, experiments were carried out in the same manner as in Examples 16d to f except that the collagen to be added was increased to 12 μl or 18 μl.
# platelets [4] = details: subject D, blood collected 6 hours after oral 100 mg clopidogrel, 6 μl of 100 μM ADP in about 600 μl blood, 20 μl/min
# Experimental: Two transparent substrates, that is, the first substrate 100 shown in FIG. 1(A) and the second substrate 110 shown in FIG. 1(B) (injection-molded products manufactured by Richell Corporation) were prepared. The side of the first substrate 100 wherein a groove corresponding to a capillary 101 opens and the side of the second substrate 110 having a platelet-adhesive surface 106 were bonded together such that these face to each other using a silane coupling agent and thermocompression bonding, to provide the microchip 1 shown in FIG. 1(C). In the first substrate 100, the length, depth and width of the channel (capillary) 101 were 20 mm, 50 μm and 2 mm, respectively. In terms of the channel dividing section 102, dividing walls 103 each having a length of 1.5 mm, width of 50 μm and height of 50 μm were placed at equal intervals of 50 μm, and this part was used as the channel dividing section. In the second substrate, each of the holes corresponding to the inlet and the outlet was a penetrating hole having a circular cross section and an inner diameter of 2 mm and a depth of 2 mm. At the position on the second substrate 110 which is overlapped with the channel dividing section 102 of the first substrate 100, about 10 μl of 3 mg/ml collagen type I (manufactured by Nitta Gelatin Inc.) was applied and dried under vacuum to provide a platelet-adhesive surface 106. […]
# platelets [5] = assay: Pressure increase in collagen-coated microchip 1, hirudin-anticoagulated blood with agent added (Examples 19 to 22); assay type: cell-based; details: flow rate 7 μl/min, ReoPro 0.4 or 0.8 μg/ml
# Experimental: as §1
# (a) Blood was collected from the subject D using a hirudin blood collection tube (Multiplate Services GmbH), and about 600 μl of the blood anticoagulated with hirudin was filled in the reservoir 207. The pump 209 was filled with mineral oil and connected to the reservoir 207, whose tip was further connected to the inlet 104 in the microchip 1.
molecule,measurement,setting,value
"Nc1ncnc2c1ncn2[C@@H]1O[C@H](COP(=O)(O)OP(=O)(O)O)[C@@H](O)[C@H]1O [ADP, adenosine diphosphate]",amount of platelets adhered to the comb portion,platelets [1],"increase in the amount of platelets adhered to the comb portion, which occurred in an ADP concentration-dependent manner"
same,pressure increase in the pump on addition of ADP,"platelets [2]; blood anticoagulated with citric acid, ADP final concentration 2 nM, flow rate 20 μl/min",caused pressure increase
CC(=O)Oc1ccccc1C(=O)O [aspirin],pressure increase of blood collected after aspirin with increased collagen,"platelets [3]; 6 hours after 100 mg aspirin, collagen increased to 12 μl or 18 μl, 20 μl/min (FIG. 19)",can also be made to cause pressure increase by increasing the collagen to be added
same,anti-platelet effect of aspirin by pressure increase,"platelets [3]; 6 hours after dosing with 100 mg aspirin, arachidonic acid or collagen added, 20, 10, 5 μl/min",anti-platelet effect of aspirin can be analyzed
COC(=O)[C@H](c1ccccc1Cl)N1CCc2sccc2C1 [clopidogrel],ADP-induced pressure increase after administration of clopidogrel,"platelets [2]; blood collected 3 hours after dosing with 75 mg clopidogrel, ADP 2 nM, 20 μl/min",the increase was suppressed
same,pressure increase after administration of clopidogrel,platelets [4],pressure increase delayed
B1,anti-platelet effect under low shear stress,platelets [5],rather strong anti-platelet effect
